# Assay results reported in US20260285857A1, “BICYCLIC AND HETEROCYCLIC AMIDE COMPOUNDS” (priority 2024, published 2026).
# Test system: immunoglobulin light chain protein WIL-FL T46L
# Assay: Differential scanning fluorimetry (thermal shift) assay
# Format: binding
# Settings: Table A; temperature shift [Tm]compound-[Tm]vehicle; recombinant WIL-FL T46L
row,Compound,DSF
1,Cc1cc(N2CC[C@](C)(c3ccccc3)C2)cn2nc(C(=O)NC3CCC4(CCN(c5cccc(C(=O)O)n5)C4)C3)nc12 (stereo partly shown) [Compound 245],***** (>2.5° C.=*****)
2,Cc1cc(N2CC[C@](C)(c3ccccc3)C2)cn2nc(C(N)=O)nc12 [Compound 137],***** (>2.5° C.=*****)
3,Cc1cc(N2CC[C@](C)(c3ccccc3)C2)cn2nc(C34CCC(N)(CO3)C4)nc12 (stereo partly shown) [Compound 66],***** (>2.5° C.=*****)
4,"Cc1cc(N2CC[C@](C)(c3ccccc3)C2)cn2nc(C(=O)NC3CC4(COC4)C3)nc12 [Compound 18, (R)-8-methyl-6-(3-methyl-3-phenylpyrrolidin-1-yl)-N-(2-oxaspiro[3.3]heptan-6-yl)-[1,2,4]triazolo[1,5-a]pyridine-2-carboxamide]",***** (>2.5° C.=*****)
5,Cc1cc(N2CC[C@](C)(c3ccccc3)C2)cn2nc(C(=O)NC3(C(=O)O)CC3)nc12 [Compound 163],***** (>2.5° C.=*****)
6,Cc1cc(N2CC[C@](C)(c3ccccc3)C2)cn2nc(C(=O)NC34COC(C(N)=O)(C3)C4)nc12 [Compound 212],***** (>2.5° C.=*****)
7,Cc1cc(N2CC[C@](C)(c3ccccc3)C2)cn2nc(C(=O)NC(C)(C)C(=O)O)nc12 [Compound 169],***** (>2.5° C.=*****)
8,Cc1cc(OC[C@H](C)c2ccccc2)cn2nc(C(=O)N3CCC(C)(O)C3)nc12 (stereo partly shown) [Compound 316],**** (>1.5-2.5° C.=****)
9,CNS(=O)(=O)c1nc2c(C)cc(N3CC[C@](C)(c4ccccc4)C3)cn2n1 [Compound 324],***** (>2.5° C.=*****)
10,Cc1ncn(CC23CC(C(=O)O)(C2)C(c2nc4c(C)cc(N5CC[C@](C)(c6ccccc6)C5)cn4n2)O3)n1 (stereo partly shown) [Compound 94],***** (>2.5° C.=*****)
11,CNC(=O)c1nc2c(C)cc(N3CC[C@](C)(c4ccccc4)C3)cn2n1 [Compound 170],***** (>2.5° C.=*****)
12,Cc1cc(N2CC[C@](C)(c3ccccc3)C2)cn2nc(C(=O)N3CC4CN(c5cccc(C(=O)O)n5)CC4C3)nc12 (stereo partly shown) [Compound 213],***** (>2.5° C.=*****)
13,Cc1cc(N2CC[C@](C)(c3ccccc3)C2)cn2nc(C34CC(CN)(CO3)C4C(N)=O)nc12 (stereo partly shown) [Compound 44],***** (>2.5° C.=*****)
14,Cc1cc(N2CC[C@](C)(c3ccccc3)C2)cn2nc(C(=O)NC34COC(C3)C4)nc12 [Compound 183],***** (>2.5° C.=*****)
15,Cc1cc(N2CC[C@](C)(c3ccccc3)C2)cn2nc(C34CC(CO)(CO3)C4C#N)nc12 (stereo partly shown) [Compound 49],***** (>2.5° C.=*****)
16,Cc1cc(N2CC[C@](C)(c3ccccc3)C2)cn2nc(C(=O)N[C@H]3CNC[C@H]3F)nc12 [Compound 149],***** (>2.5° C.=*****)

row,Compound,DSF
1,Cc1cc(N2CC[C@](C)(c3ccc(F)cc3)C2)cn2nc(C(=O)N3CC[C@@]4(CCN(c5cccc(C(=O)O)n5)C4)C3)nc12 [Compound 429],***** (>2.5° C.=*****)
2,Cc1cc(N2CC[C@](C)(c3ccccc3)C2)cn2nc(C34CC(CO3)C4Cn3cnn(C)c3=O)nc12 (stereo partly shown) [Compound 89],***** (>2.5° C.=*****)
3,Cc1cc(N2CC[C@](C)(c3ccccc3)C2)cn2nc(C34CC(NC(=O)Cn5ncnc5C)(CO3)C4)nc12 [Compound 62],***** (>2.5° C.=*****)
4,Cc1cc(N2CC[C@](C)(c3ccccc3)C2)cn2nc(C(=O)NC3CCC(O)(C(F)(F)F)C3)nc12 (stereo partly shown) [Compound 104],***** (>2.5° C.=*****)
5,Cc1cc(N2CC[C@](C)(c3ccccc3)C2)cn2nc(C(=O)N3CC4CN(c5cccc(C(=O)O)n5)CC4(C(F)(F)F)C3)nc12 (stereo partly shown) [Compound 249],***** (>2.5° C.=*****)
6,Cc1cc(N2CC[C@](C)(c3ccccc3)C2)cn2nc(C(=O)N3CCC4(CCN(c5ncn[nH]5)C4)C3)nc12 (stereo partly shown) [Compound 236],***** (>2.5° C.=*****)
7,Cc1cnc(C2(C)CCN(c3cc(C)c4nc(C(=O)N5CC6CN(c7cccc(C(=O)O)n7)CC6C5)nn4c3)C2)nc1 (stereo not shown) [Compound 400],** (>0.5-1 °C =**)
8,Cc1cc(N2CC[C@](C)(c3ccccc3)C2)cn2nc(C34CC(C(N)=O)(CO3)C4)nc12 [Compound 55],***** (>2.5° C.=*****)
9,Cc1cc(N2CC[C@](C)(c3ccccc3)C2)cn2nc(C(=O)NC3CCN(c4ccnc(C(=O)O)c4)C3)nc12 (stereo partly shown) [Compound 277],***** (>2.5° C.=*****)
10,"CC(=O)Nc1n[nH]c(C2C3COC2(c2nc4c(C)cc(N5CC[C@](C)(c6ccccc6)C5)cn4n2)C3)n1 (stereo partly drawn) [Compound 10, N-[5-[1-[8-methyl-6-[(3R)-3-methyl-3-phenyl-pyrrolidin-1-yl]-[1,2,4]triazolo[1,5-a]pyridine-2-yl]-2-oxabicyclo[2.1.1]hexan-5-yl]-1H-1,2,4-triazol-3-yl]acetamide]",***** (>2.5° C.=*****)
11,Cc1nn(CC2C3COC2(c2nc4c(C)cc(N5CC[C@](C)(c6ccccc6)C5)cn4n2)C3)c(=O)[nH]1 (stereo partly shown) [Compound 87],***** (>2.5° C.=*****)
12,Cc1cc(N2CC[C@](C)(c3ccccc3)C2)cn2nc(C(=O)N3CCC4(CCN(c5ccnc(C(=O)O)c5)C4)C3)nc12 (stereo partly shown) [Compound 257],***** (>2.5° C.=*****)
13,C[C@]1(c2ccccc2)CCN(c2cc(CO)c3nc(C(=O)N[C@@H]4CCOC4)nn3c2)C1 [Compound 352],***** (>2.5° C.=*****)
14,Cc1cc(N2CCC(C)(c3cccc(F)c3)C2)cn2nc(C(=O)NC3CCOC3)nc12 (stereo not shown) [Compound 383],***** (>2.5° C.=*****)
15,Cc1cc(N2CC[C@](C)(c3ccccc3)C2)cn2nc(C(=O)N3C[C@@H]4C[C@H]3C4C(=O)O)nc12 (stereo partly shown) [Compound 211],***** (>2.5° C.=*****)
16,Cc1cc(N2CC[C@](C)(c3ccccc3)C2)cn2nc(C(=O)NC3CC4(C3)CC(N3CC5C(C3)C5c3nn[nH]n3)C4)nc12 (stereo partly shown) [Compound 368],***** (>2.5° C.=*****)

# Same assay, conditions: Table B; temperature shift [Tm]compound-[Tm]vehicle; recombinant WIL-FL T46L
row,Compound,DSF
1,COC(=O)NCC1C2COC1(c1nc3c(C)cc(N4CC[C@](C)(c5ccccc5)C4)cn3n1)C2 (stereo partly shown) [Compound 498],***** (>2.5° C.=*****)
2,COc1cc(C(=O)O)cc(N2CC[C@@]3(CCN(C(=O)c4nc5c(C)cc(N6CC[C@](C)(c7ccccc7)C6)cn5n4)C3)C2)n1 [Compound 719],***** (>2.5° C.=*****)
3,Cc1cc(N2CC[C@](C)(c3ccccc3)C2)cn2nc(C(=O)NC3(C)CCCN(c4cccc(C(=O)O)n4)C3)nc12 (stereo partly shown) [Compound 617],***** (>2.5° C.=*****)
4,Cc1cc(N2CC[C@](C)(c3ccccc3)C2)cn2nc(C(=O)N3CCC4(CCC(N5CC(C(=O)O)C5)C4)C3)nc12 (stereo partly shown) [Compound 722],***** (>2.5° C.=*****)
5,Cc1cc(N2CC[C@](C)(c3ccccc3)C2)cn2nc(C34CC(CO3)C4N3CC4(CN(C(=O)C5CC[C@@H](C(=O)O)O5)C4)NC3=O)nc12 (stereo partly shown) [Compound 517],***** (>2.5° C.=*****)
6,Cc1cc(N2CC[C@](C)(c3ccccc3)C2)cn2nc(C(=O)N3CC[C@@]4(CCN(C5CCCC(C(=O)O)C5)C4)C3)nc12 (stereo partly shown) [Compound 720],***** (>2.5° C.=*****)
7,"Cc1cc(N2CC[C@](C)(c3ccccc3)C2)cn2nc(C(=O)N3CCC4(CCC(c5cccc(C(=O)O)n5)C4)C3)nc12 (stereo partly drawn) [Compound 640, 6-[2-[8-methyl-6-[(3R)-3-methyl-3-phenyl-pyrrolidin-1-yl]-[1,2,4]triazolo[1,5-a]pyridine-2-carbonyl]-2-azaspiro[4.4]nonan-8-yl]pyridine-2-carboxylic acid]",***** (>2.5° C.=*****)
8,Cc1cc(N2CC[C@](C)(c3ccccc3)C2)cn2nc(C(=O)N3CC[C@@]4(CCN(c5cc(C(=O)O)ccn5)C4)C3)nc12 [Compound 714],***** (>2.5° C.=*****)
9,"Cc1cc(N2CC[C@](C)(c3ccccc3)C2)cn2nc(C(=O)NC3CC4(CCC4Nc4cccc(C(=O)O)n4)C3)nc12 (stereo partly drawn) [Compound 662, 6-((6-(8-methyl-6-((R)-3-methyl-3-phenylpyrrolidin-1-yl)-[1,2,4]triazolo[1,5-a]pyridine-2-carboxamido)spiro[3.3]heptan-1-yl)amino)picolinic acid]",***** (>2.5° C.=*****)
10,Cc1cc(N2CC[C@](C)(c3ccccc3)C2)cn2nc(C(=O)N3CCC4(CCN4c4ccnc(C(=O)O)c4)C3)nc12 (stereo partly shown) [Compound 621],***** (>2.5° C.=*****)
11,"Cc1cc(N2CC[C@](C)(c3ccccc3)C2)cn2nc(C(=O)NC3C4CCN(c5cccc(C(=O)O)n5)CC43)nc12 (stereo partly drawn) [Compound 685, 6-(7-(8-methyl-6-((R)-3-methyl-3-phenylpyrrolidin-1-yl)-[1,2,4]triazolo[1,5-a]pyridine-2-carboxamido)-3-azabicyclo[4.1.0]heptan-3-yl)picolinic acid]",***** (>2.5° C.=*****)
12,Cc1cc(N2CC[C@](C)(c3ccccc3)C2)cn2nc(C(=O)N3CC4CC(C(=O)O)CC4C3)nc12 (stereo partly shown) [Compound 592],***** (>2.5° C.=*****)
13,"Cc1cc(N2CC[C@](C)(c3ccccc3)C2)cn2nc(C34CC(CO3)C4NCC(C)(C)O)nc12 (stereo partly drawn) [Compound 528, 2-methyl-1-[[1-[8-methyl-6-[(3R)-3-methyl-3-phenyl-pyrrolidin-1-yl]-[1,2,4]triazolo[1,5-a]pyridin-2-yl]-2-oxabicyclo[2.1.1]hexan-5-yl]amino]propan-2-ol]",***** (>2.5° C.=*****)
14,Cc1cc(N2CC[C@](C)(c3ccccc3)C2)cn2nc(C(=O)NC3CC4(C3)CC(N3CC(C(=O)O)C3)C4)nc12 (stereo partly shown) [Compound 600],***** (>2.5° C.=*****)
15,"Cc1cc(N2CC3(CCC3c3cccc(F)c3)C2)cn2nc(C34CC(CO3)C4N3CC4(CC4)NC3=O)nc12 (stereo not shown) [Compound 512, 6-[1-[6-[7-(3-fluorophenyl)-2-azaspiro[3.3]heptan-2-yl]-8-methyl-[1,2,4]triazolo[1,5-a]pyridin-2-yl]-2-oxabicyclo[2.1.1]hexan-5-yl]-4,6-diazaspiro[2.4]heptan-5-one]",***** (>2.5° C.=*****)
16,"Cc1n[nH]c([C@H]2[C@H]3CO[C@]2(c2nc4c(C)cc(N5CC[C@](C)(c6ccccc6)C5)cn4n2)C3)n1 [Compound 491, 8-methyl-6-[(3R)-3-methyl-3-phenyl-pyrrolidin-1-yl]-2-[(1R,4S,5R)-5-(3-methyl-1H-1,2,4-triazol-5-yl)-2-oxabicyclo[2.1.1]hexan-1-yl]-[1,2,4]triazolo[1,5-a]pyridine]",***** (>2.5° C.=*****)
17,Cc1cc(N2CC[C@](C)(c3cccc(F)c3)C2)cn2nc(C(=O)N3CC[C@@]4(CCN(c5cccc(C(=O)O)n5)C4)C3)nc12 [Compound 755],***** (>2.5° C.=*****)
